Tests used:
[1] = biological target: High affinity nerve growth factor receptor (Homo sapiens) (UniProt P04629); assay: Inhibition of TRKA (unknown origin) at 10 uM after 120 mins P33 radiolabeled kinase activity assay
[2] = biological target: T1, Ephrin type-B receptor 3 (Homo sapiens) (UniProt P54753); assay: Inhibition of EPHB3 (unknown origin) at 10 uM after 120 mins P33 radiolabeled kinase activity assay
T1 sequence (whole entry): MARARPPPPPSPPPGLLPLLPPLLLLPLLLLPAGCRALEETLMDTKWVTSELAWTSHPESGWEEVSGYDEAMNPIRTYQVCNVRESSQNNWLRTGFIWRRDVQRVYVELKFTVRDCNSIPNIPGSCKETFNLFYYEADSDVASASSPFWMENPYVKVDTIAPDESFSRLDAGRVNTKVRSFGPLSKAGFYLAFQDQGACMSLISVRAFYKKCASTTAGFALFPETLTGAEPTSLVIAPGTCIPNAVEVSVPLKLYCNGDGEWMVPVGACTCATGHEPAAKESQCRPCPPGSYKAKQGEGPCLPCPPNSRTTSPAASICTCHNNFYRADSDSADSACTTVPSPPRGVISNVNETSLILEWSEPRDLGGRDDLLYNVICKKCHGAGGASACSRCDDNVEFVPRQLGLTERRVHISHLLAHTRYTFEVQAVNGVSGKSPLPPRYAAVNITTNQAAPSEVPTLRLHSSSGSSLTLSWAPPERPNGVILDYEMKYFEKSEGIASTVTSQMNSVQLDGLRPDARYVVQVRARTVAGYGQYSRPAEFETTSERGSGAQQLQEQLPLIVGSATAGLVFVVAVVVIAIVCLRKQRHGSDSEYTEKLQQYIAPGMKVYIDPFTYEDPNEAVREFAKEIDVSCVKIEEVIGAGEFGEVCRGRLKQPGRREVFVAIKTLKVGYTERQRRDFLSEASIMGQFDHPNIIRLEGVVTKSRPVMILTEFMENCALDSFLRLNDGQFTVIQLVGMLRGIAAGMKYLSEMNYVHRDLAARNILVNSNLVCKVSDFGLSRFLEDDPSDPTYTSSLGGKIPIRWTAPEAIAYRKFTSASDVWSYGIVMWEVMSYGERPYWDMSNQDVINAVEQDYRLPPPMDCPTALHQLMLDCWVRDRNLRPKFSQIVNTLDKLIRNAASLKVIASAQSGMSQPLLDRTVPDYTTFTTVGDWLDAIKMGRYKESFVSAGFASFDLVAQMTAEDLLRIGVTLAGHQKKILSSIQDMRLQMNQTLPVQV

[3] = biological target: Receptor-type tyrosine-protein kinase FLT3 (Homo sapiens) (UniProt P36888); assay: Inhibition of FLT3 (unknown origin) at 10 uM after 120 mins P33 radiolabeled kinase activity assay
[4] = biological target: Tyrosine-protein kinase receptor UFO (Homo sapiens) (UniProt P30530); assay: Inhibition of AXL (unknown origin) at 10 uM after 120 mins P33 radiolabeled kinase activity assay
[5] = biological target: BDNF/NT-3 growth factors receptor (Homo sapiens) (UniProt Q16620); assay: Inhibition of TRKB (unknown origin) at 10 uM after 120 mins P33 radiolabeled kinase activity assay
[6] = biological target: Mitogen-activated protein kinase 1 (Homo sapiens) (UniProt P28482); assay: Inhibition of ERK2 (unknown origin) at 10 uM after 120 mins P33 radiolabeled kinase activity assay
[7] = biological target: Aurora kinase B (Homo sapiens) (UniProt Q96GD4); assay: Inhibition of Aurora B (unknown origin) at 10 uM after 120 mins P33 radiolabeled kinase activity assay
[8] = biological target: Serine/threonine-protein kinase PLK1 (Homo sapiens) (UniProt P53350); assay: Inhibition of PLK1 (unknown origin) at 10 uM after 120 mins P33 radiolabeled kinase activity assay
[9] = biological target: T2, Mitogen-activated protein kinase 13 (Homo sapiens) (UniProt O15264); assay: Inhibition of P38delta (unknown origin) at 10 uM after 120 mins P33 radiolabeled kinase activity assay
T2 sequence (whole entry): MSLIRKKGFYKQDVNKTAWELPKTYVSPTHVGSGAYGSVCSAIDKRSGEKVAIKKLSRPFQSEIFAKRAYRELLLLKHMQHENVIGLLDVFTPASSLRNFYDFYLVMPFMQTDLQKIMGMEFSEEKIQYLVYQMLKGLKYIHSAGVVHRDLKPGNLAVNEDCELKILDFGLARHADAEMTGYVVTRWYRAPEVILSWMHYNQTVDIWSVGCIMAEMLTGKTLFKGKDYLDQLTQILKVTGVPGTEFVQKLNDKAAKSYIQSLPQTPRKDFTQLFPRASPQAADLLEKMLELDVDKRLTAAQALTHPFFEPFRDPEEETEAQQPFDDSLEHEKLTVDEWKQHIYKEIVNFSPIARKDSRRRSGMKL

[10] = biological target: T3, G protein-coupled receptor kinase 3 (Homo sapiens) (UniProt P35626); assay: Inhibition of GRK3 (unknown origin) at 10 uM after 120 mins P33 radiolabeled kinase activity assay
T3 sequence (whole entry): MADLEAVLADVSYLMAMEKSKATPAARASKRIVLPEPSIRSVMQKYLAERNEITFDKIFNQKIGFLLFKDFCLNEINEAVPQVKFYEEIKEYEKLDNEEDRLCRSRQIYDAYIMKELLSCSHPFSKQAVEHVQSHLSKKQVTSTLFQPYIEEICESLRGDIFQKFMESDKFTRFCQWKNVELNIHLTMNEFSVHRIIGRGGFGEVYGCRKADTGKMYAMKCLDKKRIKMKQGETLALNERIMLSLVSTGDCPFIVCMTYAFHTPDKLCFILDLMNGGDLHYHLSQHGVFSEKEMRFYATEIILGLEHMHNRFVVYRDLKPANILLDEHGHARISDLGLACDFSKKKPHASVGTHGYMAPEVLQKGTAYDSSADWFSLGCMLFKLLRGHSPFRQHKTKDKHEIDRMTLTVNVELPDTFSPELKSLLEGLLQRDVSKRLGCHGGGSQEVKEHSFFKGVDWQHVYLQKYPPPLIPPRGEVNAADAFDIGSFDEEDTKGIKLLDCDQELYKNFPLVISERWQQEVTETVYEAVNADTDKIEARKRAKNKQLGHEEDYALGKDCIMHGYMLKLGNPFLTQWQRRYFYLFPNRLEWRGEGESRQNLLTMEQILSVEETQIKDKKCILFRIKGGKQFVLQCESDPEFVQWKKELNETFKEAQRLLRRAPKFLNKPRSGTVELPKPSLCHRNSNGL

[11] = biological target: Hepatocyte growth factor receptor (Homo sapiens) (UniProt P08581); assay: Inhibition of c-MET (unknown origin) at 10 uM after 120 mins P33 radiolabeled kinase activity assay

Chain of Receptor-type tyrosine-protein kinase FLT3 (Homo sapiens) (P36888 whole entry): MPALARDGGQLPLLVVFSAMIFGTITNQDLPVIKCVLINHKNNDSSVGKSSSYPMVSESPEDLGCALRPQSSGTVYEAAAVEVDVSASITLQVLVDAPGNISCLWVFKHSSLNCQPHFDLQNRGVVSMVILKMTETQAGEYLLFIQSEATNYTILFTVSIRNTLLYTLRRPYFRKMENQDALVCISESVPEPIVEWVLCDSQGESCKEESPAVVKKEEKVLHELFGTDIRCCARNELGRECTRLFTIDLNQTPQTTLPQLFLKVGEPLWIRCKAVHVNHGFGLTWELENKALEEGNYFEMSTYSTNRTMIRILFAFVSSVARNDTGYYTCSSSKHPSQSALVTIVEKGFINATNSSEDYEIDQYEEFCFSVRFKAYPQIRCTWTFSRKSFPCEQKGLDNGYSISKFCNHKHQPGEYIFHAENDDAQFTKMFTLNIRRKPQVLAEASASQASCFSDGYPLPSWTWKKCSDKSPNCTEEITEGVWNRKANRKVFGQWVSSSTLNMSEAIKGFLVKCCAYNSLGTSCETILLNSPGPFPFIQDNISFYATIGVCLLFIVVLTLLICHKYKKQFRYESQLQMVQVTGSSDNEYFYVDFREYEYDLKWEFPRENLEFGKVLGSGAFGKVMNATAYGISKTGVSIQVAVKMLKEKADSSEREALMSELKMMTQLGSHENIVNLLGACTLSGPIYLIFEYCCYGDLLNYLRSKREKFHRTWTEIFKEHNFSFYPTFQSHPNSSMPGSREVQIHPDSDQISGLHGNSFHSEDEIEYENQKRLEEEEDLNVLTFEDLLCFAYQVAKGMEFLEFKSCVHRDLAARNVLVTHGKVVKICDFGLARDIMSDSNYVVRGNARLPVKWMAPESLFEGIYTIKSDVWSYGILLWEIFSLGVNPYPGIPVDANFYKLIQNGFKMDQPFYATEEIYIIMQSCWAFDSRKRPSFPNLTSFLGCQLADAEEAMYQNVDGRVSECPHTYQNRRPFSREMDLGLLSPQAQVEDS
Chain of Tyrosine-protein kinase receptor UFO (Homo sapiens) (P30530 whole entry): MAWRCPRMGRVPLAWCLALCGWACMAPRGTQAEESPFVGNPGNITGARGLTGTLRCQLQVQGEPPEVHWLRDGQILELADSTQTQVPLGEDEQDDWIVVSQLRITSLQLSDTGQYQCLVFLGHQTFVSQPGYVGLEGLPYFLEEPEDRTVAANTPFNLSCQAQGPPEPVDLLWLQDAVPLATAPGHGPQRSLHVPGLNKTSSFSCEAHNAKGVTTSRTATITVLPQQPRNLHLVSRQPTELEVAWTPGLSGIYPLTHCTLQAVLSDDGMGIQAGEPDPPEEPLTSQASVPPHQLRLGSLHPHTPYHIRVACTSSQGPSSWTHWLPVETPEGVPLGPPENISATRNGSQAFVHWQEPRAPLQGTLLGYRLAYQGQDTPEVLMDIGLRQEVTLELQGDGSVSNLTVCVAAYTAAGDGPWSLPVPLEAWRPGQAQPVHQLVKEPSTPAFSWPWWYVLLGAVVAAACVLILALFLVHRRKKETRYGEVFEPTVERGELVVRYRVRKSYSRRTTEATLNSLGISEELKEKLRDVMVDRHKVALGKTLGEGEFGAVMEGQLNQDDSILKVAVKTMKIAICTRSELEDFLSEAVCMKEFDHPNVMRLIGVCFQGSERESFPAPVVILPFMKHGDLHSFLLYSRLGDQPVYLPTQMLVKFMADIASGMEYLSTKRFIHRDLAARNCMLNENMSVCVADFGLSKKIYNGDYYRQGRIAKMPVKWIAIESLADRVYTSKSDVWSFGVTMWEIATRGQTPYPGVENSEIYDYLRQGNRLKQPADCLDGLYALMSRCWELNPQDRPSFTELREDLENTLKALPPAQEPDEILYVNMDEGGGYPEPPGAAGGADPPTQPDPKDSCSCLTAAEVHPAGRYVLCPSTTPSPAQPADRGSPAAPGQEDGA
Chain of Aurora kinase B (Homo sapiens) (Q96GD4 whole entry): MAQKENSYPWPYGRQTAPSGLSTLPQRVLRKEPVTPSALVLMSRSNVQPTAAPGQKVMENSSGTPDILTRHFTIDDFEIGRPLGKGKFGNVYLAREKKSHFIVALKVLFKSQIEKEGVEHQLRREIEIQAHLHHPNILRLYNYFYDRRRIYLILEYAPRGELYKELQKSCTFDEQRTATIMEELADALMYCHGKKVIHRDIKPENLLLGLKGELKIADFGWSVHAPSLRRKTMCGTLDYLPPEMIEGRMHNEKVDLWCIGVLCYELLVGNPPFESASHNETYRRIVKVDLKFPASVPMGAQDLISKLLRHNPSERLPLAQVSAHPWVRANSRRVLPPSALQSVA
Chain of Serine/threonine-protein kinase PLK1 (Homo sapiens) (P53350 whole entry): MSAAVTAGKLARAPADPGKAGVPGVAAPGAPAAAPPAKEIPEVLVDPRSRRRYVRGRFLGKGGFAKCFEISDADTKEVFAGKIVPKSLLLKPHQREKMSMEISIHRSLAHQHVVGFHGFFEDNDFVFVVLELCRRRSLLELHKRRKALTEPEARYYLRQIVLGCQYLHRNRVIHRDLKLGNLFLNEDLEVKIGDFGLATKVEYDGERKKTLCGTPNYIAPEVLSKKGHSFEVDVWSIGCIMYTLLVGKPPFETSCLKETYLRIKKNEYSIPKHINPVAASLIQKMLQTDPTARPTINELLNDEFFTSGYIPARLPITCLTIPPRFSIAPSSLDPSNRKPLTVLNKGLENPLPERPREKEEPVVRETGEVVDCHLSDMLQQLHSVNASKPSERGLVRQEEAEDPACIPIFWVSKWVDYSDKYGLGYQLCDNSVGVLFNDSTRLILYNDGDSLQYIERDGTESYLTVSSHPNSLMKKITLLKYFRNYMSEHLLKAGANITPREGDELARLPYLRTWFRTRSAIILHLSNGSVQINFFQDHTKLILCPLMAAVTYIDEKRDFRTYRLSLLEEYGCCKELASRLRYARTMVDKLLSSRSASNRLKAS
Chain of High affinity nerve growth factor receptor (Homo sapiens) (P04629 33-796 limits assumed): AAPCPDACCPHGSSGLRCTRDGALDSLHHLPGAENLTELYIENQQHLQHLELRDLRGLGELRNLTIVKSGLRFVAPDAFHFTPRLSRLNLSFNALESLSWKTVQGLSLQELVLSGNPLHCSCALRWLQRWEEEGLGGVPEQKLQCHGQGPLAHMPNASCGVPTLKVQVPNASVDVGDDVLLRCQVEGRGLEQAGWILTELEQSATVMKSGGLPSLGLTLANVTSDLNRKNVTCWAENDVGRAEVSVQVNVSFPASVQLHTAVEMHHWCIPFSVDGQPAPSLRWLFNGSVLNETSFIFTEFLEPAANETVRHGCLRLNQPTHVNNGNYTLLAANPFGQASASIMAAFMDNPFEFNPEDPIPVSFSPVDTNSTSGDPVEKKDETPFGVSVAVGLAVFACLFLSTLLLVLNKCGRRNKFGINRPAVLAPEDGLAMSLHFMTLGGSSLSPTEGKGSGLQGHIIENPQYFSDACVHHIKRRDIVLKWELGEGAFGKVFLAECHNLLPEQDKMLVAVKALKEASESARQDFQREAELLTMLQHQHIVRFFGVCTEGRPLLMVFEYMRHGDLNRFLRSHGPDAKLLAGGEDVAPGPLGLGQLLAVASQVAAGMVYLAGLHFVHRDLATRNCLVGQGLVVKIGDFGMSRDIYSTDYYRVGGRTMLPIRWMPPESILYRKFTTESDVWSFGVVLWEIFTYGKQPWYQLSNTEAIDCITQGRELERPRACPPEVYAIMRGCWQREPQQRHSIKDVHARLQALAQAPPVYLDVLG
Chain of BDNF/NT-3 growth factors receptor (Homo sapiens) (Q16620 32-822 limits assumed): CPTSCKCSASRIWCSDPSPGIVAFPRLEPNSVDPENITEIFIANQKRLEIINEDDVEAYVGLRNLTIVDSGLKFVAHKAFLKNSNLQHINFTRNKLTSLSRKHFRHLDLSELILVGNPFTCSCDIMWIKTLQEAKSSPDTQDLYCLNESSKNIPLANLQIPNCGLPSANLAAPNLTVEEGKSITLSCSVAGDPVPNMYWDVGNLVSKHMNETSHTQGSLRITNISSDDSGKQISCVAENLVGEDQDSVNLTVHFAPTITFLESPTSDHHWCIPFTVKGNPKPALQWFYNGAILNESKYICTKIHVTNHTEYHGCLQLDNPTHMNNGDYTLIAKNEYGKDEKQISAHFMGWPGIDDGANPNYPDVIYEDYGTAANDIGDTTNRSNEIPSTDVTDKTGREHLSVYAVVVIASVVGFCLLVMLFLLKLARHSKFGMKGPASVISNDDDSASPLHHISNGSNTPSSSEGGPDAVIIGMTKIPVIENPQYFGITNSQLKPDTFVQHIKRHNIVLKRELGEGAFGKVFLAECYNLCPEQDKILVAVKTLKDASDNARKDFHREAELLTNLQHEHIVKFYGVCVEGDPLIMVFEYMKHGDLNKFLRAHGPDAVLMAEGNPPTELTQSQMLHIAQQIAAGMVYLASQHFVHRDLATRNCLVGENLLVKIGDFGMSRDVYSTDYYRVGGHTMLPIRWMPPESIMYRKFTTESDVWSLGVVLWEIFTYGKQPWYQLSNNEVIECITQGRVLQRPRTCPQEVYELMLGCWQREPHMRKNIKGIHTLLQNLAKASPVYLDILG
Chain of Mitogen-activated protein kinase 1 (Homo sapiens) (P28482 whole entry): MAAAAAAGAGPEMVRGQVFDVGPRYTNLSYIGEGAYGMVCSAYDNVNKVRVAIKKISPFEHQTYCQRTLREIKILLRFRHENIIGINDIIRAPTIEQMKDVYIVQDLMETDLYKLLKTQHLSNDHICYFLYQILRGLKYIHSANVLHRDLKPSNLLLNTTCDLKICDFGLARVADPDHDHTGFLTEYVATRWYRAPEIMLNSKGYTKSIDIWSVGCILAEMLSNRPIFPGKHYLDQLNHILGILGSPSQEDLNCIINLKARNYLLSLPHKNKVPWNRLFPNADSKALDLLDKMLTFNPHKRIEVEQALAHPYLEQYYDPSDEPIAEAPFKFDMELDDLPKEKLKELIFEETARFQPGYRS

| Structure (SMILES) | inhibition [1] | inhibition [2] | inhibition [3] | inhibition [4] | inhibition [5] | inhibition [6] | inhibition [7] | inhibition [8] | inhibition [9] | inhibition [10] | inhibition [11] |
| --- | --- | --- | --- | --- | --- | --- | --- | --- | --- | --- | --- |
| COCCNC(=O)c1ccc2c(c1)nc(-c1cnc(-c3ccc(Cl)cc3)[nH]1)n2CCOC | 5.11% | 5.87% | 27.6% | 7.68% | 4.41% | 1.34% | 6.36% | -0.52% | 3.01% | -0.61% | 10.9% |
| CS(=O)(=O)c1cccc(Nc2nccc(-c3sc(N4CCOCC4)nc3-c3cccc(NS(=O)(=O)c4c(F)cccc4F)c3)n2)c1 | 39.8% | 7.1% | 95.7% | 82.1% | 61.5% | -2.5% | 82.1% | 5.27% | 2% | -3.43% | 16.8% |
| CC(C)(C)c1cc(NC(=O)Nc2ccc(Oc3ccncc3)cc2)no1 | 97.2% | 93.3% | 98.6% | 86.6% | 96.7% | -0.63% | 49.2% | 1.09% | 93.4% | -2.07% | 92.4% |

Source: ChEMBL document CHEMBL3627608, “Crystal structures of human RIP2 kinase catalytic domain complexed with ATP-competitive inhibitors: Foundations for understanding inhibitor selectivity” (Bioorg Med Chem, 2015)
